According to US20250313560A1, “Novel bicyclic benzylamido pyridine derivatives as SOS1 inhibitors” (Boehringer Ingelheim International GmbH, priority 2024, published 2025):
Like-named read-outs stand apart in the source and are kept apart here.

Assays:
SOS1 and KRAS G12C = SOS1 and KRAS G12C (Homo sapiens (Human), UniProt Q07889); assay: KRAS::SOS1 AlphaScreen binding assay (KRAS G12C); conditions: average of at least two measurements
Method: (§1) Low IC50 values are indicative of high potency of the SOS1 inhibitor compound in this assay setting:
(§2) • GST-tagged SOS1 (564_1049_GST_TEV_ECO) produced in-house • 6xHis-Tev-K-RasG12D/G12C(1-169)Avi produced in-house • GDP (Sigma Cat No G7127) • AlphaLISA Glutathione Acceptor Beads (PerkinElmer, Cat No AL109) • AlphaScreen Streptavidin Donor Beads (PerkinElmer Cat No 6760002) • Assay plates: Proxiplate-384 PLUS, white (PerkinElmer, Cat No 6008289)
(§3) [formula] • KRAS::SOS1 GDP mix: • 7.5 nM (final assay concentration) K-RasG12C, 10 nM (final assay concentration) K-RasG12D, 10 μM (final assay concentration) GDP and 5 nM (final assay concentration) GST-SOS1 are mixed in assay buffer prior to use and kept at rt. Bead mix: • AlphaLISA Glutathione Acceptor Beads and AlphaScreen Streptavidin Donor Beads are mixed in the dark in assay buffer at a concentration of 10 μg/mL (final assay concentration) each prior to use and kept at rt.
(§4) Compounds are diluted to a final start concentration of 100 μM and are tested in duplicate. Assay-ready plates (ARPs) are generated using an Access Labcyte Workstation with a Labcyte Echo 550 or 555 acoustic dispenser. For compound a start concentration of 100 μM, 150 nL of compound solution is transferred per well in 11 concentrations in duplicate with serial 1:5 dilutions.
(§5) The assay is run using a fully automated robotic system in a darkened room below 100 Lux. 10 μL of KRAS::SOS1 GDP mix is added into columns 1-24 to the 150 nL of compound solution (final dilution in the assay 1:100, final DMSO concentration 1%).
(§6) After a 30 minute incubation time, 5 μL of bead mix is added into columns 1-23. Plates are kept at rt in a darkened incubator. After a further 60 minutes incubation, the signal is measured using a PerkinElmer Envision HTS Multilabel Reader using the AlphaScreen specifications from PerkinElmer. Each plate contains the following controls:
(§7) diluted DMSO+KRAS::SOS1 GDP mix+bead mix
(§8) diluted DMSO+KRAS::SOS1 GDP mix
(§9) Result calculation: IC50 values are calculated and analyzed using a 4 parametric logistic model.
(§10) Table 1: Inhibition values for KRAS G12C as well as for KRAS G12D. […] The value indicates an average value of at least two measurements.

SOS1 and KRAS G12D = SOS1 and KRAS G12D (Homo sapiens (Human), UniProt Q07889); assay: KRAS::SOS1 AlphaScreen binding assay (KRAS G12D); conditions: average of at least two measurements
Sequence of SOS1 and KRAS G12D (Q07889 564-1049, stated change not applied): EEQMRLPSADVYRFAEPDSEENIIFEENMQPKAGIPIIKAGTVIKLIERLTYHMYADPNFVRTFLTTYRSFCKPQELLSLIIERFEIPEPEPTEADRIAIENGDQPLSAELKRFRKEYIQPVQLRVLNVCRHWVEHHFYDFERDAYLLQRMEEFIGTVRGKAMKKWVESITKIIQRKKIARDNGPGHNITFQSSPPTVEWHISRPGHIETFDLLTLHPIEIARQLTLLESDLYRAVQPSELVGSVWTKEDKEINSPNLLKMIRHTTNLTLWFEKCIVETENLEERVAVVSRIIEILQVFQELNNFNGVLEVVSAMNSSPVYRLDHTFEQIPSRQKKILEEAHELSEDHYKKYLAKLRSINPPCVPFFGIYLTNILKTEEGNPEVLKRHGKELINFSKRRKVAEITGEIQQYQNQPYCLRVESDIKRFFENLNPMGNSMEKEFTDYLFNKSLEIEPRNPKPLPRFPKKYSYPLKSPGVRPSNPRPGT
Method: as §1, §2, §3, §4, §5, §6, §7, §8, §9, §10

[1] = test system: ERK phosphorylation in NCI-H358 SOS2 KO cells (KRAS G12C); assay: Erk phosphorylation assay; format: cell-based, human; conditions: EGF stimulated, average of at least two measurements, read-out: pERK IC50
Method: Low IC50 values are indicative of high potency of the SOS1 inhibitor compounds in this assay setting.
ERK phosphorylation assays are performed using the following human cell line: • NCI-H358 SOS2 KO (Hofmann, Gmachl, Ramharter et al, Cancer Discov. 2021, 11(1):142-15): human lung cancer with a KRAS G12C mutation;
NCI-H358 SOS2 KO are seeded at 50000 cells per well in 60 μL of DMEM with 2% FBS, in Greiner TC 384 plates. The cells are incubated overnight in an incubator at 37° C. and 5% CO2 in a humidified atmosphere. 60 nL compound solution (10 mM DMSO stock solution) is then added using a Beckman Coulter Labcyte Echo 550 device. After 50 min incubation in the aforementioned incubator, 5 nl EGF are added to each well for a final concentration of approx. 8 ng/mL using a Beckman Coulter Labcyte Echo 550 device and cells are incubated for another 10-15 minutes before lysis. The medium is removed, and the cells are lysed by addition of 20 μL of 1.6-fold lysis buffer from the AlphaLISA SureFire Ultra pERK1/2 (Thr202/Tyr204) Assay Kit with added protease inhibitors. After 20 minutes of incubation at rt with shaking, 6 μL of each lysate sample is transferred to a 384-well Proxiplate and analyzed for pERK (Thr202/Tyr204) with the AlphaLISA SureFire Ultra pERK1/2 (Thr202/Tyr204) Assay Kit. 3 μL Acceptor Mix and 3 μL Donor Mix are added under subdued light and incubated for 2 h at rt in the dark, before the signal is measured on a Perkin Elmer Envision plate reader using 384 AlphaScreen settings for Proxiplates. Data are fitted by iterative calculation with variable hill slope. The sigmoidal curve slope is fitted using a default fitting curve to ascertain IC50 values.
Table 2: Erk Phosphorylation assay. The value indicates an average value of at least two measurements.

P450 3A4 = P450 3A4 (Homo sapiens (Human), UniProt P08684); assay: Cytochrome P450 isoenzyme inhibition assay (P450 3A4, midazolam); format: in vitro ADME; conditions: human liver microsomes, Midazolam as substrate; read-out: CYP3A4 inhibition IC50
Sequence of P450 3A4 (P08684 whole entry): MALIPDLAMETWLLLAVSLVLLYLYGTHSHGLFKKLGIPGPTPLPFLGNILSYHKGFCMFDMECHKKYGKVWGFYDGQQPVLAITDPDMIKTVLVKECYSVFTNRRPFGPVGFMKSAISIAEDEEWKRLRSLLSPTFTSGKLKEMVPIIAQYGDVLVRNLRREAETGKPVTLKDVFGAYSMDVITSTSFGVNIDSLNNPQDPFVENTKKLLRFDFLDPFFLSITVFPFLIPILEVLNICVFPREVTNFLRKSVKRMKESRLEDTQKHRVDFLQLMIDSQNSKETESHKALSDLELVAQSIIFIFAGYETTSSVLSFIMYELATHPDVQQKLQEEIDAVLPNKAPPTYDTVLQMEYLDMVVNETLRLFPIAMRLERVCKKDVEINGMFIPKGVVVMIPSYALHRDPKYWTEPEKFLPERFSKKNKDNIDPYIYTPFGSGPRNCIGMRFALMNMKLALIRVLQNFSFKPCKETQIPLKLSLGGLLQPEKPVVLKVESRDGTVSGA
Method: For the following cytochrome P450 isoenzymes, these substrates and metabolic reactions are monitored: P450 3A4: hydroxylation of Midazolam (MDZ).
The final incubation volume contains TRIS buffer (0.1 M), MgCl2 (5 mM), a certain concentration of human liver microsomes dependent on the P450 isoenzyme measured (P450 3A4: 0.1 mg/ml) and a certain concentration of the individual substrate for each isoenzyme (P450 3A4: Midazolam 5 μM).
The effect of the test compound is determined at five different concentrations in duplicate (e.g. highest concentration 50 μM with subsequent serial 1:4 dilutions) or without test compound (high control). Following a short preincubation period, reactions are started with the cofactor (NADPH, 1 mM) and stopped by cooling the incubation down to 8° C. and subsequently by addition of one volume of ACN. An internal standard solution—usually the stable isotope of the formed metabolite—is added after quenching of incubations. Peak area analyte (=metabolite formed) and internal standard is determined by LC-MS/MS. The resulting peak area ratio analyte to internal standard in these incubations is compared to a control activity containing no test compound. Within each of the assay runs, the IC50 of a positive control inhibitor dependent on the P450 isoenzyme measured (P450 3A4: ketoconazole) is determined. The assay results are plotted against compound concentrations to calculated IC50 values (half maximal inhibitory concentrations) for inhibitory compounds utilizing Software IDBS E-WorkBook.
Table 4: Inhibition of P450 isoenzyme 3A^4.

CYP3A4 = CYP3A4 (Homo sapiens (Human), UniProt P08684); assay: Mechanism-based inhibition of CYP3A4 assay (MBI 3A4); format: in vitro ADME; conditions: human liver microsomes, midazolam substrate, hydroxy-midazolam formation after 30 min preincubation relative to 0 min; for inhibition at 30 min: human, probe midazolam 15 μM (hydroxy-midazolam formation), read-out: MBI inhibition % ctrl. [%] with MDZ
Sequence of CYP3A4 (P08684 whole entry): as above
Method: Mechanism-Based Inhibition of CYP3A4 assay (MBI 3A4): The mechanism-based inhibition towards CYP3A4 is assayed in human liver microsomes with midazolam as substrate. The test compounds and water control (wells w/o test compound) are preincubated in presence of NADPH (1 mM) with human liver microsomes (0.2 mg/mL) at a concentration of 0, 5 and 25 μM for 0, 10 and 30 min. After preincubation, the incubate is diluted 1:10 (to 0.02 mg/mL) and the substrate midazolam (15 μM) is added for the main incubation (10 min). The main incubation is quenched with ACN and the formation of hydroxy-midazolam is quantified via LC/MS-MS. The formation of hydroxy-midazolam from the 30 min preincubation relative to the formation from the 0 min preincubation is used as a readout. Values of less than 100% mean that the substrate midazolam is metabolized to a lower extent upon 30 min preincubation compared to 0 min preincubation. In general, low effects upon 30 min preincubation are desired (corresponding to values close to 100%/not different to the values determined with water control).
Table 5: Mechanism-based inhibition of P450 isoenzyme 3A4 with midazolam as substrate.

human hepatocytes = assay: Metabolic stability in human hepatocytes; conditions: 1 μM test compound, 50% human serum, percentage of liver blood flow
[2] = Homo sapiens, NCI-H358, NCI-H358 SOS2 KO cells

Sequence of SOS1 and KRAS G12C (Q07889 564-1049, stated change not applied): as the sequence (Q07889 564-1049, stated change not applied) above

| SMILES | IC50 (SOS1 and KRAS G12C) | IC50 (SOS1 and KRAS G12D) | IC50 [1, 2] | IC50 (P450 3A4) | inhibition at 30 min (CYP3A4) | Hepatic clearance - QH[%] in human hepatocytes (human hepatocytes) | IC50 ([1]; NCI-H358 SOS2 KO cells) | MBI inhibition % ctrl. [%] with MDZ (CYP3A4) |
| --- | --- | --- | --- | --- | --- | --- | --- | --- |
| C[C@@H](NC(=O)c1cc(N2CCC(N3CCC4(CC4)C3)CC2)c2ncnn2c1)c1cccc(C(F)F)c1F [Example E8] | 70 nM | 69 nM | 188 nM | > 50000 nM | 97% | 18% |  |  |
| C[C@@H](NC(=O)c1cc(N2CCC3(CCCN3C)CC2)c2nncn2c1)c1cccc(C(F)(F)F)c1F [Example E77] | 27 nM | 22 nM | 202 nM | > 50000 nM | 88% | <4% |  |  |
| C[C@@H](NC(=O)c1cc(N2CCC3(CCCCN3)CC2)c2ncnn2c1)c1cccc(C(F)F)c1F [Example E19] | 32 nM | 27 nM | 222 nM | > 50000 nM | 102% | 19% |  |  |
| C[C@@H](NC(=O)c1cc(N2CCC(N3C[C@@H](O)C[C@@H]3C)CC2)c2ncnn2c1)c1cccc(C(F)F)c1F [Example E12] | 30 nM | 24 nM | 110 nM | > 50000 nM | 79% | 12% |  |  |
| C[C@@H](NC(=O)c1cc(N2CCC(N3CCCC(O)CC3)CC2)c2ncnn2c1)c1cccc(C(F)F)c1F (single isomer, unassigned) [Example E17b] | 38 nM | 32 nM |  | > 50000 nM | 98% | 30% | 201 nM |  |
| CO[C@H]1CCN(C2CCN(c3cc(C(=O)N[C@H](C)c4cccc(C(F)F)c4F)cn4ncnc34)CC2)C1 [Example E10] | 74 nM | 67 nM | 212 nM | > 50000 nM | 97% | 29% |  |  |
| C[C@@H](NC(=O)c1cc(N2CCC(N3CCC[C@H]3CO)CC2)c2ncnn2c1)c1cccc(C(F)(F)F)c1F [Example E31] | 33 nM | 28 nM | 153 nM | > 50000 nM | 91% | 13% |  |  |
| C[C@@H]1C[C@@H](O)CN1[C@H]1CC[C@H](c2cc(C(=O)N[C@H](C)c3cccc(C(F)F)c3F)cn3ncnc23)CC1 [Example E62] | 22 nM | 15 nM | 315 nM | > 50000 nM | 98% | 9% |  |  |
| C[C@@H](NC(=O)c1cc(N2CCC(N3CCCC(C)(O)C3)CC2)c2ncnn2c1)c1cccc(C(F)(F)F)c1F (single isomer, unassigned) [Example E47b] | 41 nM | 45 nM |  | > 50000 nM |  | 28% | 198 nM | 88% |
| C[C@@H](NC(=O)c1cc(N2CCC(NC3COCC3O)CC2)c2ncnn2c1)c1cccc(C(F)(F)F)c1F (single isomer, unassigned) [Example cis-E41b] | 41 nM | 38 nM |  | > 50000 nM | 95% | 26% | 367 nM |  |
| C[C@H](O)CNC1CCN(c2cc(C(=O)N[C@H](C)c3cccc(C(F)(F)F)c3F)cn3ncnc23)CC1 [Example E40] | 50 nM | 53 nM | 277 nM | > 50000 nM | 75% | 22% |  |  |
| C[C@@H](NC(=O)c1cc(N2CCC(N3CCC(O)C(C)(O)C3)CC2)c2ncnn2c1)c1cccc(C(F)(F)F)c1F (stereo partly drawn) [Example cis-E29] | 56 nM | 46 nM | 261 nM | > 50000 nM | 95% | 24% |  |  |
| C[C@@H](NC(=O)c1cc(N2CCC(NC3CCCC3(C)O)CC2)c2ncnn2c1)c1cccc(C(F)(F)F)c1F (single isomer, unassigned) [Example trans-E53b] | 33 nM | 35 nM |  | > 50000 nM | 91% | 28% | 287 nM |  |
| C[C@@H](NC(=O)c1cc(N2CCC(N3CCC[C@H]3CO)CC2)c2ncnn2c1)c1cccc(C(F)F)c1F [Example E6] | 36 nM | 37 nM | 247 nM | > 50000 nM | 102% | 16% |  |  |
